Legend:
[1] = molecular target: T1, RprY (Porphyromonas gingivalis, UniProt B2RK10); assay: EMSA with nqrA promoter DNA and in vitro ChIP after treatment with AcP; assay type: biochemical; conditions: phosphoryl donor; covalent; protein as purified already partly phosphorylated; acetylation by AcP not ruled out
T1 construct: N-terminal His6-RprY (pETRprY), recombinant from E. coli BL21(DE3), 28 kDa ORF; already phosphorylated as purified

[2] = molecular target: T1, RprY; assay: autoacetylation, anti-acetyl-lysine Western blot; assay type: biochemical; conditions: 10 mM Tris-HCl pH 8.0, 37 °C, no added enzyme; covalent (lysine acetylation); acetyl donor

T1 sequence (B2RK10 entry or part of it): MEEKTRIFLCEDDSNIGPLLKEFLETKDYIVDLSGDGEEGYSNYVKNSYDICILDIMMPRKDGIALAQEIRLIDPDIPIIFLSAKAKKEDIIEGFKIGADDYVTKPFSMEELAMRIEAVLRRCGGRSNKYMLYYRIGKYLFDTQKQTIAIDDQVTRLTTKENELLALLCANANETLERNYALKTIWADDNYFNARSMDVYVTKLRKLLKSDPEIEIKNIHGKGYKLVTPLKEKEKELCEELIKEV

SMILES	EMSA with nqrA promoter DNA and in vitro ChIP after treatment with AcP [1]	autoacetylation, anti-acetyl-lysine Western blot [2]
CC(=O)OP(=O)(O)O [acetyl phosphate]	increasing concentrations of AcP resulted in increased incorporation of the labelled promoter into RprY-DNA complexes	–
CC(=O)SCCNC(=O)CCNC(=O)[C@H](O)C(C)(C)COP(=O)(O)OP(=O)(O)OC[C@H]1O[C@@H](n2cnc3c(N)ncnc32)[C@H](O)[C@@H]1OP(=O)(O)O [acetyl-CoA]	–	RprY was dependent on both the concentration of Ac-CoA and the length of incubation

Source: article PMC6032018, “Post-translational regulation of a Porphyromonas gingivalis regulator” (Journal of Oral Microbiology, 2018)
